Assay results: patent US10617690B2 (priority 2015, dated 2020)
Where two headings read alike, the source gives them in different places.

Legend:
[1] = test system: arthritis model induced by collagen; conditions: oral, two consecutive weeks
[2] = target: JAK2 protein kinase (Homo sapiens, UniProt O60674); experiment: biochemical; conditions: 12 uM ATP, 60 min;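 also: recombinant human JAK2 with ULight-labelled JAK-1(Tyr1023) peptide substrate, phosphorylation detected by TR-FRET using Eu-labelled anti-phosphotyrosine antibody, 1% DMSO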
JAK2 protein kinase, sequence (O60674 whole entry): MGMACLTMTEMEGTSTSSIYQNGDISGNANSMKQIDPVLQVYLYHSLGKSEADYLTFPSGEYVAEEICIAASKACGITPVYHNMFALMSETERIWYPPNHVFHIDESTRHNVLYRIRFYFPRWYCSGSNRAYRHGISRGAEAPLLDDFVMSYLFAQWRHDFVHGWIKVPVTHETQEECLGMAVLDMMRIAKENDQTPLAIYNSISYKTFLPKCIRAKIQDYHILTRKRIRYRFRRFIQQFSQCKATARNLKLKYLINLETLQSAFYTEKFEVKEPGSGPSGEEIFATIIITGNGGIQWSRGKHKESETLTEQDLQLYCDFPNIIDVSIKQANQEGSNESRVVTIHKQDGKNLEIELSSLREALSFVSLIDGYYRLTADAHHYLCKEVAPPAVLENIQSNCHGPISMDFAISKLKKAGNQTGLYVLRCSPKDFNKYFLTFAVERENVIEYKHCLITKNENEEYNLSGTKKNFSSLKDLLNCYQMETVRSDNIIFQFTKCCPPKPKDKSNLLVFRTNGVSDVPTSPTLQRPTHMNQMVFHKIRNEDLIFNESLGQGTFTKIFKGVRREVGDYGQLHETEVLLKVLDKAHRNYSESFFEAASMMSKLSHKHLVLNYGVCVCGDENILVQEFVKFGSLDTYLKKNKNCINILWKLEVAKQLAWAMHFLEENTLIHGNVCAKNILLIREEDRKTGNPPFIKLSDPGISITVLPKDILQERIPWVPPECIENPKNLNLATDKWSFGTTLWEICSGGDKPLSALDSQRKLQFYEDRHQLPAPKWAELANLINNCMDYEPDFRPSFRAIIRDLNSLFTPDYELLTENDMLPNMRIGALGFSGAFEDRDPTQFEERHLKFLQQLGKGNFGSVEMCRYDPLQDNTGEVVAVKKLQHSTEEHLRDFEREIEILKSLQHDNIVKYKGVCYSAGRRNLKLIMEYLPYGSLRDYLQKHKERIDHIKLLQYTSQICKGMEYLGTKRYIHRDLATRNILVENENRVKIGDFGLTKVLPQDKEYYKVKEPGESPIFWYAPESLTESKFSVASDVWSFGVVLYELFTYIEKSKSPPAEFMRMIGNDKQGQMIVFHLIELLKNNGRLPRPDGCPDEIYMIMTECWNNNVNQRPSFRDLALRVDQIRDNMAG
From the text: (§1) Recombinant humanized JAK1, JAK2 and JAK3 protease were all purchased from Life technology. LANCE Ultra ULight™-JAK-1(Tyr1023) peptide and LANCE Eu-W1024 Anti-phosphotyrosine (PT66) were both purchased from PerkinElmer. Envision (PerkinElmer) was used to read a plate.
(§2) The reading was converted into a suppression ratio as follow equation: (%)=(Min−Ratio)/(Max−Min)*100%.

[3] = Pharmacokinetics (PK) test in rats; format: in vivo; conditions: for AUC(0-inf) / AUC(0-t) / half-life / Vd / Cmax / Tmax / bioavailability: rat, plasma; for Vd: intravenous, read-out: Vdss; for Cmax / Tmax / bioavailability: oral
[4] = target: T1, JAK3 (Homo sapiens, UniProt P52333); experiment: In vitro activity test of JAK3 kinase (LANCE Ultra TR-FRET); format: biochemical;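 also: recombinant human JAK3 phosphorylating ULight-JAK-1(Tyr1023) peptide at 4 µM ATP, with 1% DMSO, detected by Eu-anti-phosphotyrosine TR-FRET on Envision and converted to percent inhibition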
T1 construct: purchased Life technology
T1 sequence (P52333 1-1124): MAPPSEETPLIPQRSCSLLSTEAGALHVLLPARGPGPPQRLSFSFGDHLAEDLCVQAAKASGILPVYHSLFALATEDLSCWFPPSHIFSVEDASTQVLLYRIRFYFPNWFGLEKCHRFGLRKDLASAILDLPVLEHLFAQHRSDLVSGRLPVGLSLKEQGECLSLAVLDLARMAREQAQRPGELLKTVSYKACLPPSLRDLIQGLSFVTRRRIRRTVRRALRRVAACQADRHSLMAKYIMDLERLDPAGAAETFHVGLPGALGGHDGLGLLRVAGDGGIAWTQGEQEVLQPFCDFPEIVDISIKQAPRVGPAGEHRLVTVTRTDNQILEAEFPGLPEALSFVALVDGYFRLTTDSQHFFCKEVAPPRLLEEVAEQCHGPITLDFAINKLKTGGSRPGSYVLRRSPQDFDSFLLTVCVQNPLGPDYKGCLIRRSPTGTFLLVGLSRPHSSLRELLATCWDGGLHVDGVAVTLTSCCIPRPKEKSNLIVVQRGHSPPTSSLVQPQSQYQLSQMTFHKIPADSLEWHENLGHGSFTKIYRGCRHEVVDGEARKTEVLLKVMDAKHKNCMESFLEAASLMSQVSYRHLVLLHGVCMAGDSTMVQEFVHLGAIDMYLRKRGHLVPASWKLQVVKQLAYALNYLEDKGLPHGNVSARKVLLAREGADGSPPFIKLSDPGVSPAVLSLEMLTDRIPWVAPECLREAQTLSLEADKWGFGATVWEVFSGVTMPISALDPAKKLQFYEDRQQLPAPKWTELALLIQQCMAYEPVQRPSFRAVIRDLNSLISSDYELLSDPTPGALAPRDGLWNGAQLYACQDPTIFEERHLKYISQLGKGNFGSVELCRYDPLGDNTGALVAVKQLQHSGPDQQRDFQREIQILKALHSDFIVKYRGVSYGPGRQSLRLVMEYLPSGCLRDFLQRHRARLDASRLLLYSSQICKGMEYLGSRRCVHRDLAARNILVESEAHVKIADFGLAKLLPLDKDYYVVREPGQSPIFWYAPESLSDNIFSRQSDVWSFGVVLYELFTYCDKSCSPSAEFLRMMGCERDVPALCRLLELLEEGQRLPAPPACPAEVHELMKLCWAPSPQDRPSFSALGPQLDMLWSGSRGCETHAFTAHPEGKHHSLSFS
Procedure: as §1
0.05 nM protein kinase, 50 nM LANCE Ultra ULight™-JAK-1(Tyr1023) peptide, 4 uM ATP, 50 mM HEPES (pH7.5), 10 mM MgCl2, 1 mM EGTA, 2 mM DTT, and 0.01% BRIJ-35.
as §2

[5] = target: JAK1 protein kinase (Homo sapiens, UniProt P23458); experiment: biochemical; conditions: 38 uM ATP, 90 min
JAK1 protein kinase, sequence (P23458 whole entry): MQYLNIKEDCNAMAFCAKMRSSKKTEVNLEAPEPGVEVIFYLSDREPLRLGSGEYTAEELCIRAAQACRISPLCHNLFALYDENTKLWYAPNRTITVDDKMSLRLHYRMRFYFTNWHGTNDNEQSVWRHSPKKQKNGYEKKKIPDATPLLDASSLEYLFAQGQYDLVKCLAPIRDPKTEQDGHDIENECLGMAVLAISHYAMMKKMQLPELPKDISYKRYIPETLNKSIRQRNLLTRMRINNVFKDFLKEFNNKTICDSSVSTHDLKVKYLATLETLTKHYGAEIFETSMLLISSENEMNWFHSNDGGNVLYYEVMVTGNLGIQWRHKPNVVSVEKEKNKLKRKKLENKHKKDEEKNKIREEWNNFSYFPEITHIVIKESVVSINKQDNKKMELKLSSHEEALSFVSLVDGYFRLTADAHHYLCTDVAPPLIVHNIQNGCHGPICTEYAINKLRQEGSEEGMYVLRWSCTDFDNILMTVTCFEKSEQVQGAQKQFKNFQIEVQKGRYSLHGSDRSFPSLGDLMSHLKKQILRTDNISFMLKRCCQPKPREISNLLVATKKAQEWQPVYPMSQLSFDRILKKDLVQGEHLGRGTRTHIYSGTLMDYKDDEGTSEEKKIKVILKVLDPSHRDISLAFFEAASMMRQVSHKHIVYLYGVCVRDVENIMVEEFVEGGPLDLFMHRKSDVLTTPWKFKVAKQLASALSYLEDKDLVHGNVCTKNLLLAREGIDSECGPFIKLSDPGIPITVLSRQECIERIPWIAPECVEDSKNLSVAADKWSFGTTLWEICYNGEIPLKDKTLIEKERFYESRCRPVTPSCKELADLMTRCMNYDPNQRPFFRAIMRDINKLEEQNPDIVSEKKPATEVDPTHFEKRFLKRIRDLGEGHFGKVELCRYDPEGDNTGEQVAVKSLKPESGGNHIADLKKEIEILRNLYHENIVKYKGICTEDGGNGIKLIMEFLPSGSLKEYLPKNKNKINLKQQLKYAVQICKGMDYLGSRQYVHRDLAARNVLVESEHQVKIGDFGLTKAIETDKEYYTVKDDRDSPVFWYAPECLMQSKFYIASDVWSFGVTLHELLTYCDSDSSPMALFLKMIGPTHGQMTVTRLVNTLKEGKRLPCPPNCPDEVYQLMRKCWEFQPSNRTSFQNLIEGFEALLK
Procedure: In Vitro Activity Test of Jak1, Jak 2 and Jak 3 Kinase
Recombinant humanized JAK1, JAK2 and JAK3 […] were all purchased from Life technology. LANCE Ultra ULight™-JAK-1(Tyr1023) peptide and LANCE Eu-W1024 Anti-phosphotyrosine (PT66) were both purchased from PerkinElmer. Envision (PerkinElmer) was used to read a plate.
Three dilution of a test compound was prepared, and 11 final concentrations were obtained: 10 uM to 0.17 nM. Each concentration had two repeat wells. The content of DMSO in a detection reaction was 1%.
2 nM JAK1 protein kinase, 50 nM LANCE Ultra ULight™-JAK-1(Tyr1023) peptide, 38 uM ATP, 50 mM HEPES (pH7.5), 10 mM MgCl2, 1 mM EGTA, 2 mM DTT, and 0.01% BRIJ-35. Detection plate was White Proxiplate 384-Plus plate (PerkinElmer), the reaction was conducted for 90 min at room temperature, and reaction system was 10 ul.
10 ul detection reagent was added into the reaction plate, wherein the final concentration of LANCE Eu-W1024 Anti-phosphotyrosine (PT66) was 2 nM, the final concentration of EDTA was 10 mM, incubation was conducted for 60 min at room temperature, and the plate was read by the Envision.
The reading was converted into a suppression ratio as follow equation: (%)=([…])/(Max−Min)*100%. IC50 data was detected by 4 parametric curve fitting (Model 205 in XLFIT5, iDBS), see Table 1.

[6] = Pharmacokinetics (PK) test in mice; format: in vivo, male DBA/1 mice; conditions: for AUC(0-inf) / AUC(0-t) / half-life / Vd / Cmax / Tmax / bioavailability: male, DBA/1, mouse, plasma; for half-life: caudal vein injection and gavage; for Vd: read-out: Vdss; for Cmax / Tmax / bioavailability: oral
[7] = test system: arthritis model induced by adjuvant; experiment: Pharmacodynamic test of an arthritis model induced by adjuvant on rats; format: in vivo, female Lewis rat; conditions: oral; for AUC (%): two consecutive weeks; for arthritis inhibitory activity and dose-effect relationship: 1, 3 and 10 mpk

Row | SMILES | AUC (%) ([1]; 15 mg/kg) | IC50 [2] [nM] | C1 [3] [mL/min/kg] | oral bioavailability and exposed quantity [3] | AUC(0-inf) [3] [µM·h] | AUC(0-t) [3] [µM·h] | half-life [3] [min] | Vd [3] [L/kg] | Cmax [3] [nM] | Tmax [3] [min] | bioavailability [3] [%] | IC50 [4] [nM] | IC50 [5] [nM] | C1 [6] [mL/min/kg] | oral bioavailability and exposed quantity [6] | AUC(0-inf) [6] [µM·h] | AUC(0-t) [6] [µM·h] | Vd ([6]; intravenous) [L/kg] | Cmax [6] [nM] | AUC (%) ([7]; 3 mg/kg) | other results
1 | CN(c1ncnc2[nH]ccc12)N1CCC[C@@H](C(=O)NCC(F)(F)F)C1 (single isomer, unassigned) [WX05, (R or S)-1-[methyl(7H pyrrolo[2,3-d]pyrimidin-4-yl)amino]-N-(2,2,2-trifluoroethyl)piperidyl-3-formamide] | 31 | 10 to 100 | 13.1 | excellent good oral bioavailability and higher exposed quantity | 11.5 | 11.2 | 91.8 | 1.49 | 3690 | 60 | 64.4 | < 10 | < 10 | 57.2 | excellent good oral bioavailability and higher exposed quantity | 0.667 | 0.664 | 0.959 | 1230 | – | half-life ([6]; intravenous): 30.9 min; Tmax [6]: 15 min; bioavailability [6]: 27%
2 | CN(c1ncnc2[nH]ccc12)N1CCCC(C(=O)NCC(F)(F)F)C1 (single isomer, unassigned) [WX06, (S or R)-1-[methyl(7H pyrrolo[2,3-d]pyrimidin-4-yl)amino]-N-(2,2,2-trifluoroethyl)piperidyl-3-formamide] | 30.3 | > 1000 | – | – | – | – | – | – | – | – | – | > 1000 | 100 to 1000 | – | – | – | – | – | – | – | –
3 | CN(c1ncnc2[nH]ccc12)N1CCC[C@@H](C(=O)NCC#N)C1 (single isomer, unassigned) [WX08, (R or S)—N-(cyanomethyl-1-[methyl(7H-pyrrolo[2,3-d]pyrimidin-4-yl)amino]piperidyl)-3-formamide] | – | < 10 | 27.1 | excellent good oral bioavailability and higher exposed quantity | 6.5 | 6.36 | 56.9 | 1.51 | 2460 | 30 | 61 | < 10 | < 10 | 26.7 | excellent good oral bioavailability and higher exposed quantity | 3.03 | 3 | 0.619 | 2440 | 33.4 | Tmax [6]: 15 min; bioavailability [6]: 50.7%; half-life ([6]; po): 37.4 min; AUC (%) ([7]; 1 mg/kg): 13.6%; AUC (%) ([7]; 10 mg/kg): 49.2%; arthritis inhibitory activity and dose-effect relationship [7]: good dose-effect relationship and generated arthritis inhibitory activity that was more effective than Filgotinib
4 | O=C(Nc1nc2cccc(-c3ccc(CN4CCS(=O)(=O)CC4)cc3)n2n1)C1CC1 [Filgotinib, reference compound] | 39.9 | – | – | – | – | – | – | – | – | – | – | – | – | – | – | – | – | – | – | 7.9 | –
5 | C[C@@H]1CCN(C(=O)CC#N)C[C@@H]1N(C)c1ncnc2[nH]ccc12 [Tofacitinib, reference compound] | 34 | – | – | – | – | – | – | – | – | – | – | – | – | – | – | – | – | – | – | 41.6 | AUC (%) ([7]; 1 mg/kg): 19.8%; AUC (%) ([7]; 10 mg/kg): 49.2%
6 | CN(c1ncnc2[nH]ccc12)N1CCCC(C(=O)NCC(F)(F)F)C1 (stereo not shown) [WX04] | 29 | 10 to 100 | – | – | – | – | – | – | – | – | – | 10 to 100 | < 10 | – | – | – | – | – | – | – | AUC (%) ([1]; 30 mg/kg): 27%
7 | CN(c1ncnc2[nH]ccc12)N1CCCC(C(=O)NCC#N)C1 (stereo not shown) [WX07, N-(cyanomethyl)-1-[methyl(7H-pyrrolo[2,3-d]pyrimidin-4-yl)amino]piperidyl-3-formamide] | 52.2 | 10 to 100 | 31.8 | excellent good oral bioavailability and higher exposed quantity | 5.75 | 5.68 | 70.8 | 1.76 | 3250 | 20 | 68.6 | < 10 | < 10 | 21.3 | excellent good oral bioavailability and higher exposed quantity | 2.48 | 2.33 | 0.846 | 2290 | 20.4 | Tmax [6]: 30 min; bioavailability [6]: 32.9%; half-life ([6]; po): 81 min; AUC (%) ([7]; 1 mg/kg): 1.5%; AUC (%) ([7]; 10 mg/kg): 44.7%; arthritis inhibitory activity and dose-effect relationship [7]: good dose-effect relationship and arthritis inhibitory activity equivalent to Tofacitinib
